Assay results reported in article PMC11930985 (Nature Communications, 2025).
Converted amounts (≈) assume the structure as drawn. “And” between values parts separate entries of the source, which are not always exact repeats. Identical values can stand only once. Like-named read-outs stand apart in the source and are kept apart here.

Key:
pERK1/2 T202/Y204 = assay: CyTOF maximal inhibition in Undefined/Immature Myeloid cells: pERK1/2; type: in vivo, human
Source text: Pharmacodynamic endpoints included the measurement of inhibition of pAXL, pERK, pAKT, pS6 and pSTAT1/3/5 in blast cells (defined as cells with abnormal surface marker expression as compared to healthy donor peripheral blood mononuclear cells and undefined/immature myeloid cells (defined as cells carrying myeloid markers but lacking distinguishing terminal differentiation markers). Mass cytometry time of flight (CyTOF) was used for the determination of the pharmacodynamic markers using a previously validated and tested panel of mass-tagged antibodies[39],[40]. The antibodies in the panel are listed in Supplementary Table 5. Briefly, fixed leukocytes from peripheral blood were barcoded using a 20-plex metal barcoding kit (Standard Biotools, Cell-ID 201060) according to manufacturer’s protocol, allowing all the samples from a single individual to be stained and analysed in parallel. All analysis runs included barcoded peripheral blood mononuclear cells (PBMCs) from at least one healthy donor and an identical barcoded reference sample (mix of PBMCs from six healthy donors). […]
For each population, marker, and sample, the 95th percentile of the non-transformed expression values was calculated. […]

healthy male subjects = system: healthy male subjects; design: method as in Protocol BGBC001; conditions: ref Protocol BGBC001, cited from earlier work
Flt1 = system: Flt1; design: method as in Investigator's Brochure (IB) version 5.0; conditions: ref Investigator's Brochure (IB) version 5.0; cited from earlier work
monkeys = system: monkeys; design: method as in Investigator's Brochure (IB) version 5.0; conditions: ref Investigator's Brochure (IB) version 5.0, cited from earlier work
Ret = system: Ret; design: method as in Investigator's Brochure (IB) version 5.0; conditions: ref Investigator's Brochure (IB) version 5.0; cited from earlier work

SMILES: Nc1nc(Nc2ccc3c(c2)CC[C@@H](N2CCCC2)CC3)nn1-c1cc2c(nn1)-c1ccccc1CCC2 [Bemcentinib]
- EC50 (pERK1/2 T202/Y204; Homo sapiens, Undefined/Immature Myeloid cells, N = 12 patients, read-out: EC50 (± standard error), pERK1/2 T202/Y204 inhibition): 0.0873 ± 0.0017 µg/mL (≈ 0.172 µM)
- Maximum inhibition (percent) pERK1/2 (T202/Y204) (pERK1/2 T202/Y204; Supplementary Figure 1c, individual patients): 87.1% and 71.6% and 100% and 8.8% and 98.1% and 30.4% and 66.9% and 0% and 5.7% and 94.5% and 39.2% and 69.3%
- Non-Cardiac Chest Pain, Maximum Grade (CTCAE version 4.0) (healthy male subjects; 50 mg, 4 fasted, 1 fed): One
- Orthostatic hypotension, Maximum Grade (CTCAE version 4.0) (healthy male subjects; 100 mg, 4 fasted, 2 fed): One
- Abdominal Distension x 2, Maximum Grade (CTCAE version 4.0) (healthy male subjects; 150 mg, 4 fasted, 1 fed): One
- Diarrhoea, Maximum Grade (CTCAE version 4.0) (healthy male subjects; 400 mg, 4 fasted, 2 fed): One
- Diarrhoea, Maximum Grade (CTCAE version 4.0) (healthy male subjects; 600 mg, 4 fasted): One
- Flatulence, Maximum Grade (CTCAE version 4.0) (healthy male subjects; 600 mg, 4 fasted): One
- Nausea x 2, Maximum Grade (CTCAE version 4.0) (healthy male subjects; 600 mg, 4 fasted): One
- Nausea, Maximum Grade (CTCAE version 4.0) (healthy male subjects; 1000 mg, 4 fasted): One
- Diarrhoea, Maximum Grade (CTCAE version 4.0) (healthy male subjects; 1500 mg, 4 fasted): One
- Dizziness, Maximum Grade (CTCAE version 4.0) (healthy male subjects; 1500 mg, 4 fasted): One
- Headache, Maximum Grade (CTCAE version 4.0) (healthy male subjects; 1500 mg, 4 fasted): One
- Nausea, Maximum Grade (CTCAE version 4.0) (healthy male subjects; 1500 mg, 4 fasted): Two
- Vomiting, Maximum Grade (CTCAE version 4.0) (healthy male subjects; 1500 mg, 4 fasted): Two
- Serious adverse events (SAE) (healthy male subjects; single dose 50-1500 mg): No serious adverse events
- IC50 (Flt1): 40 nM
- QTc change compared to vehicle control and pre-dose values (monkeys; 7.5 mg/kg and 15 mg/kg single oral): below 10%
- Heart rate (monkeys; 7.5 mg/kg – 60 mg/kg single oral): recoverable, non-adverse decreases
- Magnitude of the QTc effect (monkeys; highest dose level (60 mg/kg single oral)): 17%
- IC50 (Ret): > 316 nM
